Measurements published in article PMC7770057 (Journal of medicinal chemistry, 2020).

What was measured:
[1] = test system: SK-MEL-28 cells; experiment: Antiproliferation; assay type: cell-based; settings: Homo sapiens, SK-MEL-28, 72 h, read-out: SK-MEL-28 GI50
[2] = test system: MEK1/2; settings: HT-29 cells, 0.3, 1 and 3 μM; previous study; cited from earlier work

GI50 [1] [nM] | Structure (SMILES) | MEK1/2 degradation (Western blot, words) [2]
~100 | CCCS(=O)(=O)Nc1ccc(F)c(C(=O)c2c[nH]c3ncc(-c4ccc(Cl)cc4)cc23)c1F [PLX4032] | –
– | Cc1ncsc1-c1ccc(CNC(=O)[C@@H]2C[C@@H](O)CN2C(=O)[C@@H](NC(=O)CCCCCCCCCCNCCCONC(=O)c2ccc(F)c(F)c2Nc2ccc(I)cc2F)C(C)(C)C)cc1 [Compound 14, (2S,4R)-1-((S)-20-(tert-Butyl)-1-(3,4-difluoro-2-((2-fluoro-4-iodophenyl)amino)phenyl)-1,18-dioxo-3-oxa-2,7,19-triazahenicosan-21-oyl)-4-hydroxy-N-(4-(4-methylthiazol-5-yl)benzyl)pyrrolidine-2-carboxamide] | significantly degrade MEK1/2 protein levels
